Laboratory results as given in the supplement of paper PMC10307832.

What was measured:
Experiment in all cases: relative viability (nuclei count vs DMSO), 5 days (fraction); higher = more cells survive
[1] = compound: C1CSC2=C(C(=O)N1)SC3=C2C=C(C=C3)O [kb NB 142-70] + CC(=O)Nc1cccc(-n2c(=O)n(C3CC3)c(=O)c3c(Nc4ccc(I)cc4F)n(C)c(=O)c(C)c32)c1 [Trametinib] (partner 0.02 µM)
In short: (§1)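 Dosing by pin tool came one day after lung cancer cell lines were seeded in 1536-well plates, using either one drug or a fixed anchor-drug dose plus five library-drug doses (not always all listed) in √10 steps. After 5 days, nuclei were counted on 4× images. Relative viability is treated-well nuclei count divided by vehicle-well nuclei count, and values are medians of duplicate plates.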

[2] = compound: C1CSC2=C(C(=O)N1)SC3=C2C=C(C=C3)O [kb NB 142-70] + CC1(C)CCC(c2ccc(Cl)cc2)=C(CN2CCN(c3ccc(C(=O)NS(=O)(=O)c4ccc(N[C@H](CCN5CCOCC5)CSc5ccccc5)c(S(=O)(=O)C(F)(F)F)c4)cc3)CC2)C1 [Navitoclax] (partner 0.5 µM)
In short: as §1

kb NB 142-70 + Foretinib = compound: C1CSC2=C(C(=O)N1)SC3=C2C=C(C=C3)O [kb NB 142-70] + COc1cc2c(Oc3ccc(NC(=O)C4(C(=O)Nc5ccc(F)cc5)CC4)cc3F)ccnc2cc1OCCCN1CCOCC1 [Foretinib] (partner 0.25 µM)
In short: as §1

[3] = compound: C1CSC2=C(C(=O)N1)SC3=C2C=C(C=C3)O [kb NB 142-70] + Cc1cc(Nc2cc(N3CCN(C)CC3)nc(Sc3ccc(NC(=O)C4CC4)cc3)n2)n[nH]1 [Tozasertib] (partner 0.1 µM)
In short: as §1

kb NB 142-70 + OSI-027 = compound: C1CSC2=C(C(=O)N1)SC3=C2C=C(C=C3)O [kb NB 142-70] + COc1cccc2cc(-c3nc([C@H]4CC[C@H](C(=O)O)CC4)n4ncnc(N)c34)[nH]c12 [OSI-027] (partner 0.5 µM)
In short: as §1

UMC-11
relative viability ([1]; first compound 0.1 µM): 0.668
relative viability ([1]; first compound 1 µM): 0.735
relative viability ([1]; first compound 3.162 µM): 0.464
relative viability ([2]; first compound 0.1 µM): 0.293
relative viability ([2]; first compound 1 µM): 0.267
relative viability ([2]; first compound 3.162 µM): 0.184
relative viability (kb NB 142-70 + Foretinib; first compound 0.1 µM): 0.934
relative viability (kb NB 142-70 + Foretinib; first compound 1 µM): 0.92
relative viability (kb NB 142-70 + Foretinib; first compound 3.162 µM): 0.64
relative viability ([3]; first compound 0.1 µM): 0.217
relative viability ([3]; first compound 1 µM): 0.179
relative viability ([3]; first compound 3.162 µM): 0.18
relative viability (kb NB 142-70 + OSI-027; first compound 0.1 µM): 0.463
relative viability (kb NB 142-70 + OSI-027; first compound 1 µM): 0.468
relative viability (kb NB 142-70 + OSI-027; first compound 3.162 µM): 0.298
